Experimental data taken from patent US20240409536A1, “COMPOUNDS AND METHODS FOR MODULATING SPLICING” (REMIX THERAPEUTICS INC., priority 2021, published 2024).

Tests used:
[1] = system: HiBiT-tagged MYB protein; test: HiBiT protein abundance assay, MYB (K562 HiBiT knock-in cells); format: cell-based, human; settings: 24 hours
Method: (§1) Compounds described herein were used to screen for effects on quantitative protein abundance using a HiBit assay system (Promega). Quantitative protein abundance was determined by measuring the protein levels of HiBit-tagged protein targets expressed in cell culture via luminescence using the Nano-Glo HiBiT Lytic Detection System, which uses a split complementation assay format to reconstitute NanoBiT enzyme to generate a luminescent signal. A protein abundance assay was developed such that endogenous protein targets could be modified with the HiBiT peptide tag and their abundance could be assessed after compound treatment. Briefly, K562 cell lines containing a HiBiT-modification were treated with various compounds described herein (e.g., compounds of Formulas (I), (II), or (III)). After treatment for 24 hours, the protein abundance of a specific target was determined by measuring luminescence.
(§2) • Promega Nano-Glo HiBiT Lytic Detection System (cat #N3030) • Corning 384-well TC-treated microplates (cat #3570) • Synthego Engineered Cells Knock-In Clones
(§3) Cells were maintained in IMDM with 10% FBS. Before the assay, cells were diluted with […] growth media (IMDM+1% FBS media) and were seeded in a 384-well plate at a density of 10000 cells/well (for each cell line listed in Table 6). Each compound was prepared as a 10-point 3-fold serial dilution in DMSO with the top dose at a final concentration of 10 μM in the well. Unmodified K562 cells were added at the previously specified density with DMSO to serve as an assay baseline and positive control (PC) and DMSO only with the respective modified cell lines was added to the negative control (NC) columns. Final DMSO concentration was kept at or below 0.25%. Treated cell plates were placed in an incubator at 37° C. with 5% CO2 for 24 hours. After 24 hours, 25 μL of Complete HiBit Lytic reagent was added to each well at room temperature (e.g. one plate requiring 10 mL Lytic Buffer, 100 μL LgBiT Protein, 200 μL Lytic Substrate), shaken for 5 minutes at 600 RPM, then left to sit for 10 minutes for signal to stabilize before reading on a Spark Cyto plate reader (Tecan) with a 500 ms measurement time.
(§4) To determine compound effects on protein abundance of each target in Table 6, the percent response for each respective cell line was calculated at each compound concentration as follows:
(§5) For the normalized response at each concentration, a four-parameter logistical regression was fit to the data and the response was interpolated at the 50% value to determine a concentration for protein abundance at 50% (IC50) the untreated control.

[2] = system: Target C; test: HiBiT protein abundance assay, Target C (K562 HiBiT knock-in cells); format: cell-based, human; settings: 24 hours
Method: as §2, §3, §4, §5

[3] = system: HiBiT-tagged HTT protein; test: HiBiT protein abundance assay, HTT (K562 HiBiT knock-in cells); format: cell-based, human; settings: 24 hours
Method: as §1, §2, §3, §4, §5

[4] = system: MYB mRNA; test: Splicing RT-qPCR assay, MYB canonical (CJ) and alternative (AJ) junction mRNA; format: cell-based; settings: Homo sapiens, A673 or K562 cells, 24 hours; for IC50: decrease in canonical junction mRNA; for AC50: increase in alternative junction mRNA
Method: (§6) Compounds described herein were used to modulate RNA transcript abundance in cells. The expression of a target mRNA was measured by detecting the formation of an exon-exon junction in the canonical transcript (CJ). A compound mediated exon-inclusion event was detected by observing an increase in formation of a new junction with an alternative exon (AJ). Real-time qPCR assays were used to detect these splicing switches and interrogate the potency of various compounds towards different target genes. A high-throughput real time quantitative PCR (RT-qPCR) assay was developed to measure these two isoforms of the mRNA (CJ and AJ) for exemplary genes, such as HTT, SMN2, and MYB, together with a control housekeeping gene, GAPDH or GUSB or PPIA, used for normalization. Briefly, the A673 or K562 cell line was treated with various compounds described herein (e.g., compounds of Formula (I), (I), or (III)). After treatment, the levels of the HTT, MYB, or SMN2 mRNA targets were determined from each sample of cell lysate by cDNA synthesis followed by qPCR.
(§7) • Cells-to-CT 1-step kit: ThermoFisher A25602, Cells-to-CT lysis reagent: ThermoFisher 4391851C, TaqMan™ Fast Virus 1-Step Master Mix: ThermoFisher 4444436 • GAPDH: VIC-PL, ThermoFisher 4326317E (Assay: Hs99999905_ml)—used for K562/suspension cell lines • GUSB: VIC-PL, ThermoFisher 4326320E (Assay: Hs99999908_ml)—used for K562/suspension cell lines • PPIA: VIC-PL, ThermoFisher 4326316E (Assay: Hs99999904_ml)—used for A673/adherent cell lines
(§8) The A673 cell line was cultured in DMEM with 10% FBS. Cells were diluted with full growth media and plated in a 96-well plate (15,000 cells in 100 ul media per well). The plate was incubated at 37° C. with 5% CO2 for 24 hours to allow cells to adhere. An 11-point 3-fold serial dilution of the compounds was made in DMSO then diluted in media in an intermediate plate. Compounds were transferred from the intermediate plate to the cell plate with the top dose at a final concentration of 10 uM in the well. Final DMSO concentration was kept at or below 0.25%. The cell plate was returned to the incubator at 37° C. with 5% CO2 for an additional 24 hours.
(§9) The K562 cell line was cultured in IMDM with 10% FBS. For K562, cells were diluted with full growth media and plated in either a 96-well plate (50,000 cells in 50 uL media per well) or a 384-well plate (8,000-40,000 cells in 45 uL media per well). An 11-point 3-fold serial dilution of the compounds were made in DMSO then diluted in media in an intermediate plate. Compound was transferred from the intermediate plate to the cell plate with the top dose at a final concentration of 10 uM in the well. Final DMSO concentration was kept at or below 0.25%. Final volume was 100 uL for 96-well plate and 50 uL for 384-well plate. The cell plate was then placed in an incubator at 37° C. with 5% CO2 for 24 hours.
(§10) The cells were then gently washed with 50 uL-100 uL cold PBS before proceeding to addition of lysis buffer. 30 uL-50 uL of room temperature lysis buffer with DNAse I (and optionally RNAsin) was added to each well. Cells were shaken/mixed thoroughly at room temperature for 5-10 minutes for lysis to take place and then 3 uL-5 uL of room temperature stop solution was added and wells were shaken/mixed again. After 2-5 minutes, the cell lysate plate was transferred to ice for RT-qPCR reaction setup. The lysates could also be frozen at −80° C. for later use.
(§11) In some cases, a direct lysis buffer was used. An appropriate volume of 3×lysis buffer (10 mM Tris, 150 mM NaCl, 1.5%-2.5% Igepal and 0.1-1 U/uL RNAsin, pH 7.4) was directly added to either K562 or A673 cells in media and mixed by pipetting 3 times. The plates were then incubated at room temperature with shaking/rocking for 20-50 minutes to allow for lysis to take place. After this time, the cell lysate plate was transferred to ice to set up for the RT-qPCR reactions. The lysates could also be frozen at −80° C. for later use. […]

[5] = system: MYB mRNA; test: Gene panel canonical junction qPCR assay, MYB CJ mRNA decrease; format: cell-based, human; settings: Homo sapiens, canonical junction qPCR, read-out: MYB IC50 (decrease in CJ mRNA levels)
Summary of the method: (§12)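 A673 or K562 cells treated with compound; canonical exon-exon junction mRNA quantified by cDNA synthesis and RT-qPCR with junction-spanning primer/probe, normalized to GAPDH, GUSB or PPIA and DMSO (2^(−ΔΔCt)). Percent response from set ΔCt assay windows fitted to 4-parameter logistic; IC50 for CJ decrease.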

[6] = system: SMN2 mRNA; test: Gene panel canonical junction qPCR assay, SMN2 CJ mRNA decrease; format: cell-based, human; settings: Homo sapiens, canonical junction qPCR, read-out: SMN2 IC50 (decrease in CJ mRNA levels)
Summary of the method: as §12

[7] = system: HTT mRNA; test: Splicing RT-qPCR assay, HTT canonical (CJ) and alternative (AJ) junction mRNA; format: cell-based; settings: Homo sapiens, A673 or K562 cells, 24 hours; for IC50: decrease in canonical junction mRNA; for AC50: increase in alternative junction mRNA
Method: as §6, §7, §8, §9, §10, §11

[8] = system: HTT mRNA; test: Gene panel canonical junction qPCR assay, HTT CJ mRNA decrease; format: cell-based, human; settings: Homo sapiens, canonical junction qPCR, read-out: HTT IC50 (decrease in CJ mRNA levels)
Summary of the method: as §12

[9] = system: Target C mRNA; test: Gene panel canonical junction qPCR assay, Target C CJ mRNA decrease; format: cell-based; settings: Homo sapiens, canonical junction qPCR, read-out: Target C IC50 (decrease in CJ mRNA levels)
Summary of the method: as §12

[10] = system: K562 cells; test: Cell Titer Glo 2.0 cell viability assay in K562 cells; settings: 72 hours
Method: Compounds described herein were screened for toxicity in K562 (human chronic myelogenous leukemia) and SH-SY5Y (human neuroblastoma) cells using a Cell Titer Glo 2.0 assay.
Cells were plated at 500 cells/well (K562 cells) in 45 μL of IMDM supplemented with 10% FBS in a 384-well opaque plate. Wells containing only medium were used as a blank control. Test compounds (e.g., compounds of Formula (I), (II), or (III)) were first serially diluted in DMSO then diluted 1:100 with IMDM+10% FBS. The final concentration of DMSO was 0.1% in each well. The cells were incubated for 72 hours at 37° C. and 5% CO2 before assaying with Cell Titer Glo 2.0 reagent.

Structure (SMILES) | IC50 [1] | IC50 [2] | IC50 [3] | IC50 [4] | AC50 [4] | IC50 [5] | IC50 [6] | IC50 [7] | AC50 [7] | IC50 [8] | IC50 [9] | Viability [10]
COCCOc1ncc2c(N3CCNCC3)ccc(C(=O)Nc3cc(F)c4nc(C)cn4c3)c2n1 [Compound 180, N-{8-fluoro-2-methylimidazo[1,2-a]pyridin-6-yl}-2-(2-methoxyethoxy)-5-(piperazin-1-yl)quinazoline-8-carboxamide; trifluoroacetic acid] | > 10 µM | > 10 µM | > 10 µM | – | – | – | – | – | – | – | – | –
Cc1cn2cc(NC(=O)c3c(F)cc(N4CCNCC4)c4ccnnc34)cc(F)c2n1 [Compound 350] | – | – | – | 1 to 10 µM | 1 to 10 µM | 1 to 10 µM | 0.1 to 1 µM | > 10 µM | > 10 µM | > 10 µM | > 10 µM | –
Cc1cn2cc(NC(=O)c3ccc([C@H]4C[C@@H](C)N[C@@H](C)C4)c4nccnc34)cc(F)c2n1 [Compound 379] | – | – | – | 0.1 to 1 µM | 0.1 to 1 µM | 0.1 to 1 µM | < 0.1 µM | 1 to 10 µM | 1 to 10 µM | 1 to 10 µM | > 10 µM | B (B represents 100-1000 nM)
Cc1cn2cc(NC(=O)c3ccc([C@@H]4C[C@@H](C)N[C@@H](C)C4)c4nccnc34)cc(F)c2n1 [Compound 380] | – | – | – | < 0.1 µM | < 0.1 µM | < 0.1 µM | < 0.1 µM | 0.1 to 1 µM | 0.1 to 1 µM | 0.1 to 1 µM | 0.1 to 1 µM | B (B represents 100-1000 nM)
COc1nc(NC(=O)c2ccc(N3C[C@H](C)N[C@@H](C)C3)c3nccnc23)cn2cc(C)nc12 [Compound 381] | – | – | – | 0.1 to 1 µM | 0.1 to 1 µM | 0.1 to 1 µM | < 0.1 µM | > 10 µM | > 10 µM | > 10 µM | > 10 µM | B (B represents 100-1000 nM)
Cc1cn2cc(NC(=O)c3ccc(N4C[C@H](C)N[C@@H](C)C4)c4cccnc34)cc(F)c2n1 [Compound 382] | – | – | – | 0.1 to 1 µM | < 0.1 µM | 0.1 to 1 µM | < 0.1 µM | 1 to 10 µM | 1 to 10 µM | 1 to 10 µM | 1 to 10 µM | B (B represents 100-1000 nM)
COc1nc(NC(=O)c2ccc(N3C[C@@H](C)N[C@@H](C)C3)c3cccnc23)cn2cc(C)nc12 [Compound 383] | – | – | – | 0.1 to 1 µM | 0.1 to 1 µM | 0.1 to 1 µM | < 0.1 µM | 1 to 10 µM | 1 to 10 µM | 1 to 10 µM | 1 to 10 µM | B (B represents 100-1000 nM)
COc1nc(NC(=O)c2ccc(N3C[C@H](C)N[C@@H](C)C3)c3cccnc23)cn2cc(C)nc12 [Compound 384] | – | – | – | < 0.1 µM | < 0.1 µM | < 0.1 µM | < 0.1 µM | 1 to 10 µM | 1 to 10 µM | 1 to 10 µM | > 10 µM | B (B represents 100-1000 nM)
COc1ncc2c(N3C[C@H](C)N[C@@H](C)C3)ccc(C(=O)Nc3cc(F)c4nc(C)cn4c3)c2n1 [Compound 386] | – | – | – | < 0.1 µM | < 0.1 µM | < 0.1 µM | < 0.1 µM | 0.1 to 1 µM | 0.1 to 1 µM | 0.1 to 1 µM | 0.1 to 1 µM | –
